Laboratory results reported in patent US20260070945A1, “MACROCYCLIC IMMUNOMODULATORS” (Bristol-Myers Squibb Company, priority 2022, published 2026).
*1 amine or outer side, *2 acyl side, *3 side chain or, on linkers, in order; H or OH if unused. Where a SMILES comes first, the peptide text is derived from it. Bridges are numbered along the chain shown (N, C = ends). [ ]: non-standard residue; d: D form. The star is where a group is joined. ξ: configuration not given here. Phe(3-CF3) = N[C@@H](Cc1cccc(C(F)(F)F)c1)C(=O)O; Ala(morpholin-4-yl) = N[C@@H](CN1CCOCC1)C(=O)O; Phe(4-COOH) = N[C@@H](Cc1ccc(C(=O)O)cc1)C(=O)O; Bip = N[C@@H](Cc1ccc(-c2ccccc2)cc1)C(=O)O; Phe(3-Me) = Cc1cccc(C[C@H](N)C(=O)O)c1; γGlu = O=C(O)[C@H](CCC(=O)[*:2])N[*:1]; NH(CH2)12COOH = O=C(O)CCCCCCCCCCCCN*; X11 = CC[C@@H](C)C(N[*:1])C(=O)[*:2]; ξγGlu = O=C(O)C(CCC(=O)[*:2])N[*:1]; Val(3-OH) = CC(C)(O)[C@H](N)C(=O)O; 4Pal = N[C@@H](Cc1ccncc1)C(=O)O; Cha = N[C@@H](CC1CCCCC1)C(=O)O; Cit = NC(=O)NCCC[C@H](N)C(=O)O; Ile(3ξ) = CCC(C)[C@H](N)C(=O)O; Thr(3ξ) = CC(O)[C@H](N)C(=O)O; Chg = N[C@H](C(=O)O)C1CCCCC1; 12Ado = NCCCCCCCCCCCC(=O)O; Carboxymethyl = O=C(O)C*; NMeA = CN[C@@H](C)C(=O)O; Nle = CCCC[C@H](N)C(=O)O; Orn = NCCC[C@H](N)C(=O)O; Aun = NCCCCCCCCCCC(=O)O; Dab = NCC[C@H](N)C(=O)O; Dap = NC[C@H](N)C(=O)O; AEEA = NCCOCCOCC(=O)O; Sar = CNCC(=O)O

target: T1, PD-1/PD-L1 interaction (PE-labeled human PD-L1-Ig binding to Jurkat cell line over-expressing human PD-1) (Homo sapiens, UniProt Q15116); assay: Jurkat-PD-1 Cell Binding High-Content Screening Assay (CBA); conditions: Jurkat-hPD-1 cells, PE-labeled PD-L1-Ig 20 nM final; read-out: Jurkat HPD1 PDL1 IC50
T1 construct: expressed in transfected cells; host or cells: Jurkat
How it was run: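 Binding of 20 nM (final) PE-tagged PD-L1-Ig to compound-pretreated Jurkat-hPD-1 cells was measured by high-content imaging after 1 h. Pretreatment ran 2 h at 37 °C in DMEM with 10% fetal calf serum.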

T1 sequence (Q15116 25-288): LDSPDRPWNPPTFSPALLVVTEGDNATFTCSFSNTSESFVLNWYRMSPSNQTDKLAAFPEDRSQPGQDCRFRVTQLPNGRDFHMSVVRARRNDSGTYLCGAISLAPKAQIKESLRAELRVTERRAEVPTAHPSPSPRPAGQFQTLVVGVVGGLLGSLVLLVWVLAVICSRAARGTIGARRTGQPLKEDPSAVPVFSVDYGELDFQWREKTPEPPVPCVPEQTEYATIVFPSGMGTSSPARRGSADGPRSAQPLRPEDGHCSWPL

Row | SMILES | IC50
1 | CCC(C)[C@@H]1NC(=O)[C@H](Cc2ccc(-c3ccccc3)cc2)NC(=O)[C@H](C(C)C)NC(=O)[C@H](Cc2c[nH]c3ccccc23)NC(=O)[C@H](CC(=O)O)NC(=O)[C@H](Cc2ccc(OCC(=O)O)cc2)NC(=O)[C@H](CN)NC(=O)CSC[C@@H](C(=O)N[C@@H](CCCN)C(=O)N[C@@H](CO)C(=O)NCCCCCCCCCCCC(=O)O)NC(=O)[C@H](C(C)O)NC(=O)[C@H](C(C)C)NC(=O)[C@H](CC2CCCCC2)NC(=O)[C@H](CCN)NC(=O)[C@@H](CC(C)C)NC(=O)[C@H](C)N(C)C1=O (stereo partly drawn) [Example 2409] ({CH2CO}-[Dap]Y(Carboxymethyl)DWV[Bip][Ile(3ξ)][NMeA][dL][Dab][Cha]V[Thr(3ξ)]C[Orn]S[12Ado]-OH; thioether N-14) | 109 nM
2 | Cc1cccc(C[C@@H]2NC(=O)[C@H](CC(=O)O)NC(=O)[C@H](Cc3ccc(OCC(=O)O)cc3)NC(=O)[C@H](CC(N)=O)NC(=O)CSC[C@@H](C(=O)N(C)CC(=O)NCCCCCCCCCCC(=O)O)NC(=O)[C@H](CCC(=O)O)NC(=O)[C@H](C(C)C)NC(=O)[C@H](CC3CCCCC3)NC(=O)[C@H](CCN)NC(=O)[C@@H](CC(C)C)NC(=O)[C@H](C)N(C)C(=O)[C@H](C(C)C)NC(=O)[C@H](Cc3ccc(-c4ccccc4)cc3)NC(=O)[C@H](Cc3ccc(O)cc3)NC2=O)c1 [Example 2266] ({CH2CO}-NY(Carboxymethyl)D[Phe(3-Me)]Y[Bip]V[NMeA][dL][Dab][Cha]VEC[Sar][Aun]-OH; thioether N-14) | 334 nM
3 | CC(C)C[C@@H]1NC(=O)[C@H](Cc2c[nH]c3ccccc23)NC(=O)[C@H](CC(=O)O)NC(=O)[C@H](Cc2ccc(C(=O)O)cc2)NC(=O)[C@H](Cc2ccc(OCC(=O)O)cc2)NC(=O)CSC[C@@H](C(=O)NCCOCCOCC(=O)NCCCCCCCCCCC(=O)O)NC(=O)[C@H](CCCNC(N)=O)NC(=O)[C@H](C(C)(C)O)NC(=O)[C@H](CC2CCCCC2)NC(=O)[C@H](CCN)NC(=O)[C@@H](CC(C)C)NC(=O)[C@H](C)N(C)C(=O)[C@H](C(C)C)NC(=O)[C@H](Cc2ccc(-c3ccccc3)cc2)NC1=O [Example 1111] ({CH2CO}-Y(Carboxymethyl)[Phe(4-COOH)]DWL[Bip]V[NMeA][dL][Dab][Cha][Val(3-OH)][Cit]C[AEEA][Aun]-OH; thioether N-14) | 9.1 nM
4 | CC(C)C[C@H]1NC(=O)[C@H](C)N(C)C(=O)[C@H](C(C)C)NC(=O)[C@H](Cc2ccc(-c3ccccc3)cc2)NC(=O)[C@H](C2CCCCC2)NC(=O)[C@H](Cc2c[nH]c3ccccc23)NC(=O)[C@H](CC(=O)O)NC(=O)[C@H](Cc2ccc(OCC(=O)O)cc2)NC(=O)[C@H](Cc2ccncc2)NC(=O)CSC[C@@H](C(=O)N[C@@H](CCCCN)C(=O)NCCOCCOCC(=O)NCCCCCCCCCCC(=O)O)NC(=O)[C@H](CO)NC(=O)[C@H](C(C)C)NC(=O)[C@H](CC2CCCCC2)NC(=O)[C@H](CC(=O)O)NC1=O [Example 2090] ({CH2CO}-[4Pal]Y(Carboxymethyl)DW[Chg][Bip]V[NMeA][dL]D[Cha]VSCK[AEEA][Aun]-OH; thioether N-14) | 48.2 nM
5 | CC(C)C[C@@H]1NC(=O)[C@H](Cc2c[nH]c3ccccc23)NC(=O)[C@H](CC(=O)O)NC(=O)[C@H](Cc2ccc(OCC(=O)O)cc2)NC(=O)[C@H](Cc2ccccc2)NC(=O)CSC[C@@H](C(=O)N[C@@H](CCCN)C(=O)NCCCCCCCCCCC(=O)O)NC(=O)[C@@H](CCC(N)=O)NC(=O)[C@H](C(C)C)NC(=O)[C@H](CC(C)C)NC(=O)[C@H](CC(N)=O)NC(=O)[C@@H](CC(C)C)NC(=O)[C@H](C)N(C)C(=O)[C@H](C(C)C)NC(=O)[C@H](Cc2ccc(-c3ccccc3)cc2)NC1=O [Example 1347] ({CH2CO}-FY(Carboxymethyl)DWL[Bip]V[NMeA][dL]NLV[dQ]C[Orn][Aun]-OH; thioether N-14) | 301 nM
6 | COC[C@@H]1NC(=O)CSC[C@@H](C(=O)N[C@@H](CCN)C(=O)NCCOCCOCC(=O)NC(CCC(=O)NCCOCCOCC(=O)NCCCCCCCCCCCCC(=O)O)C(=O)O)NC(=O)[C@H](CCCCNC(C)=O)NC(=O)[C@H](C(C)(C)O)NC(=O)[C@H](CC2CCCCC2)NC(=O)[C@H](CCN)NC(=O)[C@@H](CC(C)C)NC(=O)[C@H](C)N(C)C(=O)[C@H](CCCNC(N)=O)NC(=O)[C@H](Cc2ccc(-c3ccccc3)cc2)NC(=O)[C@H](Cc2ccc(C(=O)O)cc2)NC(=O)[C@H](Cc2cccc(C(F)(F)F)c2)NC(=O)[C@H](CC(=O)O)NC(=O)[C@H](Cc2ccc(OCC(=O)O)cc2)NC1=O (stereo partly drawn) [Example 1168] ({CH2CO}-S(Me)Y(Carboxymethyl)D[Phe(3-CF3)][Phe(4-COOH)][Bip][Cit][NMeA][dL][Dab][Cha][Val(3-OH)]K(Ac)C[Dab][AEEA][ξγGlu][AEEA]-{NH(CH2)12COOH}; thioether N-14) | 14.8 nM
7 | CC[C@@H](C)C1NC(=O)[C@H](Cc2ccc(-c3ccccc3)cc2)NC(=O)[C@H](CC(C)C)NC(=O)[C@H](Cc2cccc(C)c2)NC(=O)[C@H](CC(=O)O)NC(=O)[C@H](Cc2ccc(O)cc2)NC(=O)[C@H](Cc2ccccc2)NC(=O)CSC[C@@H](C(=O)N[C@@H](CCN)C(=O)NCCCCCCCCCCC(=O)O)NC(=O)[C@H](CCCCN)NC(=O)[C@H](C(C)C)NC(=O)[C@H](CC(C)C)NC(=O)[C@H](CCN)NC(=O)[C@@H](C)NC(=O)[C@H](C)N(C)C1=O (stereo partly drawn) [Example 2197] ({CH2CO}-FYD[Phe(3-Me)]L[Bip][X11][NMeA][dA][Dab]LVKC[Dab][Aun]-OH; thioether N-14) | 94 nM
8 | CC(C)C[C@H]1NC(=O)[C@H](C)N(C)C(=O)[C@H](CCCNC(N)=O)NC(=O)[C@H](Cc2ccc(-c3ccccc3)cc2)NC(=O)[C@H](Cc2ccc(C(=O)O)cc2)NC(=O)[C@H](Cc2cccc(C(F)(F)F)c2)NC(=O)[C@H](CC(=O)O)NC(=O)[C@H](Cc2ccc(OCC(=O)O)cc2)NC(=O)[C@H](CN2CCOCC2)NC(=O)CSC[C@@H](C(=O)N[C@@H](CCN)C(=O)NCCCCCCCCCCCCC(=O)O)NC(=O)[C@H](CCC(=O)O)NC(=O)[C@H](C(C)C)NC(=O)[C@H](CC2CCCCC2)NC(=O)[C@H](CCN)NC1=O [Example 1155] ({CH2CO}-[Ala(morpholin-4-yl)]Y(Carboxymethyl)D[Phe(3-CF3)][Phe(4-COOH)][Bip][Cit][NMeA][dL][Dab][Cha]VEC[Dab]-{NH(CH2)12COOH}; thioether N-14) | 8.6 nM
9 | CC(C)C[C@@H]1NC(=O)[C@H](Cc2c[nH]c3ccccc23)NC(=O)[C@H](CC(=O)O)NC(=O)[C@H](Cc2ccc(OCC(=O)O)cc2)NC(=O)[C@H](Cc2ccc(OCC(=O)O)cc2)NC(=O)CSC[C@@H](C(=O)NCCOCCOCC(=O)NCCCCCCCCCCC(=O)O)NC(=O)[C@H](CO)NC(=O)[C@H](Cc2cnc[nH]2)NC(=O)[C@H](CC2CCCCC2)NC(=O)[C@H](CCC(=O)O)NC(=O)[C@@H](CC(C)C)NC(=O)[C@H](C)N(C)C(=O)[C@H](C(C)C)NC(=O)[C@H](Cc2ccc(-c3ccccc3)cc2)NC1=O [Example 2449] ({CH2CO}-Y(Carboxymethyl)Y(Carboxymethyl)DWL[Bip]V[NMeA][dL]E[Cha]HSC[AEEA][Aun]-OH; thioether N-14) | 272 nM
10 | CC(C)C[C@@H]1NC(=O)[C@H](Cc2c[nH]c3ccccc23)NC(=O)[C@H](CC(=O)O)NC(=O)[C@H](Cc2ccncc2)NC(=O)[C@H](Cc2ccc(OCC(=O)O)cc2)NC(=O)CSC[C@@H](C(=O)N[C@@H](CCN)C(=O)NCCCCCCCCCCC(=O)O)NC(=O)[C@H](CCC(N)=O)NC(=O)[C@H](C(C)C)NC(=O)[C@H](CC2CCCCC2)NC(=O)[C@H](CCN)NC(=O)[C@@H](CC(C)C)NC(=O)[C@H](C)N(C)C(=O)[C@H](C(C)C)NC(=O)[C@H](Cc2ccc(-c3ccccc3)cc2)NC1=O [Example 1341] ({CH2CO}-Y(Carboxymethyl)[4Pal]DWL[Bip]V[NMeA][dL][Dab][Cha]VQC[Dab][Aun]-OH; thioether N-14) | 9.1 nM

same assay, conditions: PE-labeled PD-L1-Ig 20 nM final, Jurkat-hPD-1 cells; read-out: Jurkat HPD1 PDL1 IC50

Row | SMILES | IC50
11 | CCCC[C@@H]1NC(=O)CSC[C@@H](C(=O)N[C@@H](CCN)C(=O)NCCOCCOCC(=O)N[C@@H](CCC(=O)NCCOCCOCC(=O)NCCCCCCCCCCCCC(=O)O)C(=O)O)NC(=O)[C@H](CCC(=O)O)NC(=O)[C@H](C(C)C)NC(=O)[C@H](CC2CCCCC2)NC(=O)[C@H](CCN)NC(=O)[C@@H](CC(C)C)NC(=O)[C@H](C)N(C)C(=O)[C@H](Cc2ccc(OCC(=O)O)cc2)NC(=O)[C@H](Cc2ccc(-c3ccccc3)cc2)NC(=O)[C@H](Cc2ccc(OCC(=O)O)cc2)NC(=O)[C@H](Cc2cccc(C)c2)NC(=O)[C@H](CC(=O)O)NC(=O)[C@H](Cc2ccc(OCC(=O)O)cc2)NC1=O [Example 2657] ({CH2CO}-[Nle]Y(Carboxymethyl)D[Phe(3-Me)]Y(Carboxymethyl)[Bip]Y(Carboxymethyl)[NMeA][dL][Dab][Cha]VEC[Dab][AEEA][γGlu][AEEA]-{NH(CH2)12COOH}; thioether N-14) | 88.3 nM
12 | CC(=O)NCCCC[C@@H]1NC(=O)[C@H](C(C)(C)O)NC(=O)[C@H](CC2CCCCC2)NC(=O)[C@H](CCN)NC(=O)[C@@H](CC(C)C)NC(=O)[C@H](C)N(C)C(=O)[C@H](CCCNC(=N)N)NC(=O)[C@H](Cc2ccc(-c3ccccc3)cc2)NC(=O)[C@H](Cc2ccc(C(=O)O)cc2)NC(=O)[C@H](Cc2cccc(C(F)(F)F)c2)NC(=O)[C@H](CC(=O)O)NC(=O)[C@H](Cc2ccc(OCC(=O)O)cc2)NC(=O)[C@H](Cc2ccc(OCC(=O)O)cc2)NC(=O)CSC[C@@H](C(=O)N[C@@H](CCN)C(=O)NCCOCCOCC(=O)NCCCCCCCCCCCCC(=O)O)NC1=O [Example 2639] ({CH2CO}-Y(Carboxymethyl)Y(Carboxymethyl)D[Phe(3-CF3)][Phe(4-COOH)][Bip]R[NMeA][dL][Dab][Cha][Val(3-OH)]K(Ac)C[Dab][AEEA]-{NH(CH2)12COOH}; thioether N-14) | 16.8 nM
